For one assay, the target named is T1, 11CBy receptors (Homo sapiens, UniProt Q99705).
T1 construct: expressed in transfected cells; washed membranes
T1 sequence (Q99705 whole entry): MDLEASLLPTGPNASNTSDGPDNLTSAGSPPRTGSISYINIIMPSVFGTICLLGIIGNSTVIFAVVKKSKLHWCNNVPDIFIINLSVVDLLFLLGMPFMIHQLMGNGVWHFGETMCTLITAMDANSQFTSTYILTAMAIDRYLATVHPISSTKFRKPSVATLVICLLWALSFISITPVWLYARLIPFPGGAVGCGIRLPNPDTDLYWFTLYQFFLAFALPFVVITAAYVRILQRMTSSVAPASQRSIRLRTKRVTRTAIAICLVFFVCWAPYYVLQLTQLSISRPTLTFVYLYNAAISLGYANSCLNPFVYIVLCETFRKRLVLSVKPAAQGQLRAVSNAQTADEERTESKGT
Briefly: Radioligand binding assay, [125I]-Melanin Concentrating Hormone competition on membranes from HEK293 cells stably expressing 11CBy receptors. To be noted: [125I]-MCH 0.22 nM, 45 min at 37° C., pH 7.4, pKi calculated from IC50. On the procedure: The activity of the compounds used in this invention may be assessed by competitive binding assays to 11CBy receptors, as follows:
Radioligand Binding Studies
Radioligand binding assays were carried out on well washed membranes from HEK293 cells stably expressing 11CBy receptors. […] Non-specific binding was defined using 0.1 mM Melanin Concentrating Hormone (obtained from Bachem). The test compounds were added at concentrations between […] and 10 pM in 10 concentration steps. Following incubation, the reaction was stopped by filtration through GF/B filters and washed with 4×1 ml of ice-cold 50 mM Tris buffer. Microscint 20 (Packard) was added to the filters and the radioactivity measured using a Packard TopCount.
Bound cpm in the presence of test compound was expressed as a fraction of the bound cpm in the absence of test compound and plotted against the concentration of compound. From this an IC50 was determined from which the pKi was calculated.
Consider “Biphenyl-4-carboxylic acid [4-((R)-diethylamino-hydroxy-propoxy)-3-methoxy-phenyl]-amide [Example G1]”, for which the pKi range is 7.1-7.4.

The same assay, now with this note: [125I]-MCH 0.22 nM, 45 min at 37° C., pH 7.4, pKi calculated from IC50, read-out: pKi range (converted).
With `COc1cc(NC(=O)c2ccc(C3CCCCC3)cc2)ccc1OC[C@@H]1CCCN1C` [Example A48], the Ki was 15.8 to 31.6 nM.
Still for that read-out and setting: in the case of `COc1cc(NC(=O)c2ccc(-c3ccccc3)cc2Cl)ccc1OCCN(C(C)C)C(C)C` [Example C8] it was 39.8 to 79.4 nM; in that of `CCN(CC)CCOc1ccc(N(C)C(=O)c2ccc(-c3ccccc3)cc2)cc1OC` [Example E9, Biphenyl-4-carboxylic acid [4-(2-diethylamino-ethoxy)-3-methoxy-phenyl]-methyl-amide], 15.8 to 31.6 nM; in that of `COc1cc(NC(=O)c2ccc(-c3ccccc3)nc2)ccc1OCCN(C(C)C)C(C)C` [Example F4], 39.8 to 79.4 nM.
On to `COc1cc(NC(=O)c2ccc(C3CCCCC3)cc2)ccc1N1CCN(C)CC1` [Example H1, 4-Cyclohexyl-N-[3-methoxy-4-(4-methyl-piperazin-1-yl)-phenyl]-benzamide], for which the Ki is 39.8 to 79.4 nM.

These data come from patent publication US20040063686A1, “Carboxamide compounds and their use as antagonists of a human 11cby receptor” (priority 2000, published 2004).
